Test results reported in paper PMC11062899, “De novo development of small cyclic peptides that are orally bioavailable” (Nature Chemical Biology, 2023).
Values joined by “and” are separate entries in the source; they are usually repeats but may differ in a detail not shown here. Equal entries are not always repeated. Where two headings read alike, the source gives them in different places.

Tests used:
human α-thrombin = human α-thrombin (Homo sapiens, UniProt P00734); test: Protease inhibition, Ki for human α-thrombin (fluorogenic substrate Z-Gly-Gly-Arg-AMC); type: biochemical; conditions: human alpha thrombin; for Slope normalized to DMSO (proteolytic substrate cleavage over time): replicates R1-R3
Method in brief: (§1)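 Inhibition was measured as AMC fluorescence from 50 μM substrate, monitored for 30 min at 25 °C, relative to a peptide-free control. Human and rat enzymes were present at 2 nM and 3 nM final, respectively, in 50 mM Tris-HCl pH 7.4, 150 mM NaCl, 10 mM MgCl2, 1 mM CaCl2. Ki derives from fitted IC50 via Cheng–Prusoff.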

rat α-thrombin = biological target: T1, rat α-thrombin (Rattus norvegicus, UniProt P18292); test: Protease inhibition, Ki for rat α-thrombin (fluorogenic substrate Z-Gly-Gly-Arg-AMC); type: biochemical; conditions: rat alpha thrombin; for Slope normalized to DMSO (proteolytic substrate cleavage over time): replicates R1-R3
T1 construct: rat α-thrombin (Molecular Innovations) were used at final concentrations of 2 nM and 3 nM; purchased Molecular Innovations
Method in brief: as §1

porcine pepsin = biological target: T2, porcine pepsin (Sus scrofa, UniProt P00791); test: Peptide stability in simulated gastric fluid (SGF); type: in vitro ADME
T2 construct: 0.32 g of porcine pepsin (Sigma-Aldrich, P7125) was dissolved under gentle agitation; purchased Sigma-Aldrich P7125
T2 sequence (P00791 60-385): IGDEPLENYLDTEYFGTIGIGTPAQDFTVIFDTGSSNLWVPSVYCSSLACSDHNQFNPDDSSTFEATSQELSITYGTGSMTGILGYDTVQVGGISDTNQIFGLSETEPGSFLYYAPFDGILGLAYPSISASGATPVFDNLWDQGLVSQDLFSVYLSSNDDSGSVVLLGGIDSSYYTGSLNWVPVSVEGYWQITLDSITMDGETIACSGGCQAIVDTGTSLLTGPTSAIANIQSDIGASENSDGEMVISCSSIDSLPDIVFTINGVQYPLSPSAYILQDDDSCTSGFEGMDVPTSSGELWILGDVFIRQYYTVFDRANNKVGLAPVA
Method in brief: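 Peptide from a 1 mM DMSO stock was added to fluid pre-warmed at 37 °C. SGF was pH 1.2 NaCl with porcine pepsin (0.32 g per 100 ml), and SIF was pH 6.8 potassium phosphate with porcine pancreatin (1 g per 100 ml). Supernatant peptide was quantified by LC–MS, with residual expressed as T1/T0.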

[1] = Passive artificial membrane permeability (PAMPA)
[2] = Metabolic stability in rat liver microsomes (RLMs); conditions: for microsomal CLint / half-life: rat

SMILES: O=C1C[C@H]2CCCN2C(=O)[C@H](Cc2ccccc2)NC(=O)[C@@H](NC(=O)c2ccc(Cl)s2)CCSCc2cccc(n2)CSCCN1 [compound 33]
- Ki (human α-thrombin; average of R1-R3, read-out: Ki Average, human alpha thrombin inhibition): 96.6 nM
- Slope normalized to DMSO (proteolytic substrate cleavage over time) (human α-thrombin; peptide 1.02E-03 uM): 103.0 and 105.2 and 102.2
- Slope normalized to DMSO (proteolytic substrate cleavage over time) (human α-thrombin; peptide 1.04E+00 uM): 21.7 and 19.1 and 21.5
- Slope normalized to DMSO (proteolytic substrate cleavage over time) (human α-thrombin; peptide 1.27E-04 uM): 106.0 and 98.8 and 103.2
- Slope normalized to DMSO (proteolytic substrate cleavage over time) (human α-thrombin; peptide 1.30E-01 uM): 57.8 and 50.1 and 54.9
- Slope normalized to DMSO (proteolytic substrate cleavage over time) (human α-thrombin; peptide 1.59E-05 uM): 109.2 and 97.6 and 100.1
- Slope normalized to DMSO (proteolytic substrate cleavage over time) (human α-thrombin; peptide 1.63E-02 uM): 89.4 and 85.3 and 86.8
- Slope normalized to DMSO (proteolytic substrate cleavage over time) (human α-thrombin; peptide 1.67E+01 uM): 7.7 and 6.1 and 7.5
- Slope normalized to DMSO (proteolytic substrate cleavage over time) (human α-thrombin; peptide 2.03E-03 uM): 102.9 and 97.6 and 97.7
- Slope normalized to DMSO (proteolytic substrate cleavage over time) (human α-thrombin; peptide 2.08E+00 uM): 19.7 and 13.9 and 8.6
- Slope normalized to DMSO (proteolytic substrate cleavage over time) (human α-thrombin; peptide 2.54E-04 uM): 113.7 and 102.5 and 100.7
- Slope normalized to DMSO (proteolytic substrate cleavage over time) (human α-thrombin; peptide 2.60E-01 uM): 43.1 and 35.0 and 39.7
- Slope normalized to DMSO (proteolytic substrate cleavage over time) (human α-thrombin; peptide 3.18E-05 uM): 105.3 and 102.8 and 93.4
- Slope normalized to DMSO (proteolytic substrate cleavage over time) (human α-thrombin; peptide 3.26E-02 uM): 88.2 and 77.6 and 78.4
- Slope normalized to DMSO (proteolytic substrate cleavage over time) (human α-thrombin; peptide 3.33E+01 uM): 6.8 and 6.6
- Slope normalized to DMSO (proteolytic substrate cleavage over time) (human α-thrombin; peptide 4.07E-03 uM): 95.5 and 99.8 and 99.7
- Slope normalized to DMSO (proteolytic substrate cleavage over time) (human α-thrombin; peptide 4.17E+00 uM): 12.3 and 14.8 and 9.6
- Slope normalized to DMSO (proteolytic substrate cleavage over time) (human α-thrombin; peptide 5.09E-04 uM): 101.7 and 102.5 and 100.0
- Slope normalized to DMSO (proteolytic substrate cleavage over time) (human α-thrombin; peptide 5.21E-01 uM): 26.3 and 24.6 and 23.6
- Slope normalized to DMSO (proteolytic substrate cleavage over time) (human α-thrombin; peptide 6.36E-05 uM): 99.2 and 97.4 and 102.8
- Slope normalized to DMSO (proteolytic substrate cleavage over time) (human α-thrombin; peptide 6.51E-02 uM): 70.8 and 64.0 and 70.3
- Slope normalized to DMSO (proteolytic substrate cleavage over time) (human α-thrombin; peptide 6.67E+01 uM): 6.9 and 8.6 and 6.6
- Slope normalized to DMSO (proteolytic substrate cleavage over time) (human α-thrombin; peptide 7.95E-06 uM): 102.4 and 98.2 and 102.1
- Slope normalized to DMSO (proteolytic substrate cleavage over time) (human α-thrombin; peptide 8.14E-03 uM): 92.1 and 87.0 and 91.2
- Slope normalized to DMSO (proteolytic substrate cleavage over time) (human α-thrombin; peptide 8.33E+00 uM): 12.3 and 13.7 and 5.0
- IC50 (human α-thrombin; single replicates R1-R3, read-out: IC50, human alpha thrombin inhibition): 139 nM and 101 nM and 135 nM
- Ki (human α-thrombin; single replicates R1-R3, read-out: Ki, human alpha thrombin inhibition): 108 nM and 78 nM and 104 nM
- Ki (rat α-thrombin; average of R1-R3, read-out: Ki Average, rat alpha thrombin inhibition): 48.7 nM
- Slope normalized to DMSO (proteolytic substrate cleavage over time) (rat α-thrombin; peptide 1.02E-03 uM): 97.0 and 99.6 and 95.3
- Slope normalized to DMSO (proteolytic substrate cleavage over time) (rat α-thrombin; peptide 1.04E+00 uM): 14.5 and 15.6 and 13.7
- Slope normalized to DMSO (proteolytic substrate cleavage over time) (rat α-thrombin; peptide 1.27E-04 uM): 100.8 and 101.2 and 98.8
- Slope normalized to DMSO (proteolytic substrate cleavage over time) (rat α-thrombin; peptide 1.30E-01 uM): 42.9 and 43.5 and 41.1
- Slope normalized to DMSO (proteolytic substrate cleavage over time) (rat α-thrombin; peptide 1.59E-05 uM): 100.2 and 103.5 and 96.9
- Slope normalized to DMSO (proteolytic substrate cleavage over time) (rat α-thrombin; peptide 1.63E-02 uM): 81.2 and 82.0 and 78.1
- Slope normalized to DMSO (proteolytic substrate cleavage over time) (rat α-thrombin; peptide 1.67E+01 uM): 4.8 and 6.2 and 3.6
- Slope normalized to DMSO (proteolytic substrate cleavage over time) (rat α-thrombin; peptide 2.03E-03 uM): 97.0 and 98.5 and 91.0
- Slope normalized to DMSO (proteolytic substrate cleavage over time) (rat α-thrombin; peptide 2.08E+00 uM): 9.6 and 11.2 and 10.1
- Slope normalized to DMSO (proteolytic substrate cleavage over time) (rat α-thrombin; peptide 2.54E-04 uM): 101.1 and 99.8 and 96.9
- Slope normalized to DMSO (proteolytic substrate cleavage over time) (rat α-thrombin; peptide 2.60E-01 uM): 27.4 and 28.5 and 28.0
- Slope normalized to DMSO (proteolytic substrate cleavage over time) (rat α-thrombin; peptide 3.18E-05 uM): 101.5 and 104.3 and 97.0
- Slope normalized to DMSO (proteolytic substrate cleavage over time) (rat α-thrombin; peptide 3.26E-02 uM): 78.3 and 77.8 and 74.1
- Slope normalized to DMSO (proteolytic substrate cleavage over time) (rat α-thrombin; peptide 3.33E+01 uM): 5.1 and 5.9 and 3.3
- Slope normalized to DMSO (proteolytic substrate cleavage over time) (rat α-thrombin; peptide 4.07E-03 uM): 94.4 and 95.7 and 92.3
- Slope normalized to DMSO (proteolytic substrate cleavage over time) (rat α-thrombin; peptide 4.17E+00 uM): 6.3 and 7.7 and 3.6
- Slope normalized to DMSO (proteolytic substrate cleavage over time) (rat α-thrombin; peptide 5.09E-04 uM): 98.0 and 98.3 and 95.3
- Slope normalized to DMSO (proteolytic substrate cleavage over time) (rat α-thrombin; peptide 5.21E-01 uM): 18.6 and 18.9 and 16.5
- Slope normalized to DMSO (proteolytic substrate cleavage over time) (rat α-thrombin; peptide 6.36E-05 uM): 100.6 and 99.7 and 96.2
- Slope normalized to DMSO (proteolytic substrate cleavage over time) (rat α-thrombin; peptide 6.51E-02 uM): 60.0 and 58.6 and 62.0
- Slope normalized to DMSO (proteolytic substrate cleavage over time) (rat α-thrombin; peptide 6.67E+01 uM): 5.5 and 6.9 and 1.9
- Slope normalized to DMSO (proteolytic substrate cleavage over time) (rat α-thrombin; peptide 7.95E-06 uM): 105.3 and 103.4 and 99.9
- Slope normalized to DMSO (proteolytic substrate cleavage over time) (rat α-thrombin; peptide 8.14E-03 uM): 89.5 and 90.6 and 84.9
- Slope normalized to DMSO (proteolytic substrate cleavage over time) (rat α-thrombin; peptide 8.33E+00 uM): 6.7 and 6.6 and 4.7
- IC50 (rat α-thrombin; single replicates R1-R3, read-out: IC50, rat alpha thrombin inhibition): 86.2 nM and 82.3 nM and 95.4 nM
- Ki (rat α-thrombin; single replicates R1-R3, read-out: Ki, rat alpha thrombin inhibition): 47.7 nM (2×) and 45.6 nM (2×) and 52.8 nM (2×)
- SGF stability, Residual peptide Average (porcine pepsin; after 8 h vs 0 h (TIC), average of R1-R3): 94.64
- SGF stability, Residual peptide (porcine pepsin; after 8 h vs 0 h (TIC), single replicates R1-R3): 93.36 and 101.37 and 89.19
- remaining at 8 h (porcine pepsin; simulated gi fluid, 8 h, 37 °C, pH 1.2, read-out: Proteolytic stability: SGF (8 h) % remaining): 95 ± 6%
- PAMPA permeability: % permeability ([1]; 50 μM, 12–18 h, acceptor concentration relative to equilibrium): 45 ± 10%
- Papp at 50 μM ([1]; PAMPA, pH 7.4): 5.89 ×10⁻⁶ cm/s
- Permeability% Average ([1]; top well sample vs theoretical equilibrium sample (TIC), average of R1-R3): 45.3%
- Permeability% ([1]; top well sample vs theoretical equilibrium sample (TIC), single replicates R1-R3): 55.48% and 44.56% and 35.81%
- TIC value of compound, 0 min, R1 ([2]; rat liver microsomes, 0 min, replicate R1): 21264470
- TIC value of compound, 0 min, R3 ([2]; rat liver microsomes, 0 min, replicate R3): 18840495
- TIC value of compound, 5 min, R1 ([2]; rat liver microsomes, 5 min, replicate R1): 18437497
- TIC value of compound, 5 min, R3 ([2]; rat liver microsomes, 5 min, replicate R3): 18024716
- TIC value of compound, 15 min, R1 ([2]; rat liver microsomes, 15 min, replicate R1): 13918481
- TIC value of compound, 15 min, R3 ([2]; rat liver microsomes, 15 min, replicate R3): 11416589
- TIC value of compound, 30 min, R1 ([2]; rat liver microsomes, 30 min, replicate R1): 9967302
- TIC value of compound, 30 min, R3 ([2]; rat liver microsomes, 30 min, replicate R3): 7497114
- TIC value of compound, 60 min, R1 ([2]; rat liver microsomes, 60 min, replicate R1): 4659151
- TIC value of compound, 60 min, R3 ([2]; rat liver microsomes, 60 min, replicate R3): 3520876
- microsomal CLint ([2]; CL (ul/min/mg protein), R1, RLM CL, replicate R1, unrounded): 52.1 µL/min/mg
- microsomal CLint ([2]; CL (ul/min/mg protein), R2, RLM CL, replicate R2, unrounded): 71 µL/min/mg
- microsomal CLint ([2]; CL (ul/min/mg protein), R3, RLM CL, replicate R3, unrounded): 58.8 µL/min/mg
- half-life ([2]; Half Life (min), R1, RLM metabolic stability, replicate R1): 26.6 min
- half-life ([2]; Half Life (min), R2, RLM metabolic stability, replicate R2): 19.5 min
- half-life ([2]; Half Life (min), R3, RLM metabolic stability, replicate R3): 23.6 min
- half-life ([2]; microsomes, Metabolic stability: Half life T1/2 (min), RLMs, mean and SD, three measurements): 23 ± 3 min
- microsomal CLint ([2]; microsomes, Metabolic stability: RLM CL (ul/min/mg), RLMs, mean and SD, three measurements): 61 ± 8 µL/min/mg
- microsomal CLint ([2]; microsomes, RLM CL, Average, average of R1-R3): 60.6 µL/min/mg
- microsomal CLint ([2]; microsomes, RLM CL, R1, RLM CL, replicate R1, summary block): 52.1 µL/min/mg
- microsomal CLint ([2]; microsomes, RLM CL, R2, RLM CL, replicate R2, summary block): 71 µL/min/mg
- microsomal CLint ([2]; microsomes, RLM CL, R3, RLM CL, replicate R3, summary block): 58.8 µL/min/mg
